Test system: rat
Assay: concentration in urine after dosing
Details: dosed: benzo(a)pyrene, 20 mg/kg, iv, male, Sprague-Dawley

Oc1ccc2ccc3cc4ccccc4c4ccc1c2c34 [1-hydroxybenzo(a)pyrene]
Details	concentration in urine [ng/mL]
3.699 h	0.371
7.645 h	0.0295
10.85 h	0.0167
22.69 h	1.58
28.98 h	3.02
34.9 h	5.24
46.73 h	2.31
52.9 h	2.18
58.94 h	1.1
77.07 h	0.514
94.7 h	0.0397

c1ccc2c(c1)cc1ccc3cccc4ccc2c1c34 [benzo(a)pyrene]
Details	concentration in urine [ng/mL]
4.13 h	3.27
7.866 h	0.98
11.07 h	0.98
23.06 h	10.1
29.09 h	126
35.2 h	1.96
47.07 h	0.98
52.8 h	0.654
58.8 h	0.654
76.8 h	0.654
94.93 h	0.654

Oc1ccc2ccc3c4ccccc4cc4ccc1c2c43 [3-hydroxybenzo(a)pyrene]
Details	concentration in urine [ng/mL]
4.071 h	0.145
8.015 h	0.0241
23.16 h	5.11
28.88 h	6.99
35.11 h	8.63
47.07 h	6.84
52.93 h	6.1
59.03 h	2.19
76.84 h	0.0482
95.04 h	0.289

From EPA's CvTdb concentration-time database (doi:10.5012/bkcs.2003.24.5.559)
